Assay results taken from ChEMBL document CHEMBL3992548, “Design, synthesis and biological evaluation of 2,4-disubstituted oxazole derivatives as potential PDE4 inhibitors” (Bioorg Med Chem, 2017).

Tests used:
PBMC = test: Anti-inflammatory activity in human PBMC assessed as inhibition of LPS-induced TNFalpha secretion preincubated for 30 mins followed by LPS stimulation for 18 hrs by TR-FRET assay; format: functional, cell-based
[1] = biological target: 3',5'-cyclic-AMP phosphodiesterase 4B (Homo sapiens, UniProt Q07343); test: Inhibition of human U937 cells-derived PDE4B using [3H]cAMP as substrate after 30 mins
3',5'-cyclic-AMP phosphodiesterase 4B, sequence (Q07343 whole entry): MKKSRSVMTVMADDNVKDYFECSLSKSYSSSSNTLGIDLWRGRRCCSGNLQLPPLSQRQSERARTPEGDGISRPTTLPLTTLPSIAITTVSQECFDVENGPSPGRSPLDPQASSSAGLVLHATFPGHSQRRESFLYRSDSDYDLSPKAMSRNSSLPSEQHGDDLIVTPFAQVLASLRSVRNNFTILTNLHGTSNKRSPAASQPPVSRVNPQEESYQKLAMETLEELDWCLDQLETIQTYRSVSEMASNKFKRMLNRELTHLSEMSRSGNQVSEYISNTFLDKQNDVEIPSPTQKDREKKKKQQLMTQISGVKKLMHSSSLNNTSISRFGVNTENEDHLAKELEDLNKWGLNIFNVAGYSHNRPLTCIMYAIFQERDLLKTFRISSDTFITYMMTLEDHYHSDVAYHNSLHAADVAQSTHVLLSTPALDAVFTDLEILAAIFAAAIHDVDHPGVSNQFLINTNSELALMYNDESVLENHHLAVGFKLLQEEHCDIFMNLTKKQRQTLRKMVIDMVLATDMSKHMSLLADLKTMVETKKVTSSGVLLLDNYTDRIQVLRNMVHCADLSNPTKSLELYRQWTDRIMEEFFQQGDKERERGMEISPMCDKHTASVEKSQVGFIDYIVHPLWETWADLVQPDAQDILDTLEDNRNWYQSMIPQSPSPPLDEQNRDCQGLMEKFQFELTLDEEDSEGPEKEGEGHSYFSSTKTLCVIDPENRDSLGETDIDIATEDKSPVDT

[2] = biological target: 3',5'-cyclic-AMP phosphodiesterase 4D (Homo sapiens, UniProt Q08499); test: Inhibition of human U937 cells-derived PDE4D using [3H]cAMP as substrate after 30 mins
3',5'-cyclic-AMP phosphodiesterase 4D, sequence (Q08499 whole entry): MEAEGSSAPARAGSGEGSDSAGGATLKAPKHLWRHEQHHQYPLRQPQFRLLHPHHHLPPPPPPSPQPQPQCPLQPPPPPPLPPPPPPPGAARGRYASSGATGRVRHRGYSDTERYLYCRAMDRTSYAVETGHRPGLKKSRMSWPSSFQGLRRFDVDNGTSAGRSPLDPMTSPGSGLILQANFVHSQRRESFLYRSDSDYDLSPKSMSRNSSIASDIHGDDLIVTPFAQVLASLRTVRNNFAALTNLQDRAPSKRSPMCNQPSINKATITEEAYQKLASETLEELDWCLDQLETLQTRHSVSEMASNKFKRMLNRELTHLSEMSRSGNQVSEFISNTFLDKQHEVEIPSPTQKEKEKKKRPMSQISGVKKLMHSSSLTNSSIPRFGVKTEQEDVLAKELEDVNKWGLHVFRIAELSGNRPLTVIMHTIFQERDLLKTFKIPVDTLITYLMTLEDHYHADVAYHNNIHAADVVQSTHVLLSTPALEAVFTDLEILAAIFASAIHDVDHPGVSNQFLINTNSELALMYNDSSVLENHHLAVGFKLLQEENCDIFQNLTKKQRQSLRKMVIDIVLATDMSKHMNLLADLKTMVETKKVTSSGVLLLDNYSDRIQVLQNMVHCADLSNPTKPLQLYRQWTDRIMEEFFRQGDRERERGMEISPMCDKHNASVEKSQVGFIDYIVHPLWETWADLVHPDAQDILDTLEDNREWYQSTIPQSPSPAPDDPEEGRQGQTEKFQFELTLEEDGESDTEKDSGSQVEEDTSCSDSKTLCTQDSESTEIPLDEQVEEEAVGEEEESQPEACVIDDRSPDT

Rattus norvegicus = test: Anti-inflammatory activity in Sprague-Dawley rat model of LPS-induced asthma/COPD assessed as inhibition of neutrophilia in lungs at 10 mg/kg, po administered 30 mins prior to LPS challenge for 40 mins measured after 6 hrs relative to control; format: functional
Mus musculus = test: Anti-inflammatory activity in LPS-induced Swiss albino mouse sepsis model assessed as inhibition of TNF-alpha release in serum at 10 mg/kg, po administered 30 mins prior to LPS challenge measured after 90 mins by ELISA relative to control; format: functional

SMILES	IC50 [1]	IC50 [2]	IC50 (PBMC)	inhibition in vivo at 10 mg/kg (Rattus norvegicus)	inhibition in vivo at 10 mg/kg (Mus musculus)
Cc1cc(C)n(C(=O)c2coc(-c3cccc(F)c3)n2)n1	40.8 µM		83.4 µM		
Cc1ccc(-c2nc(C(=O)n3nc(C)cc3C)co2)cc1	6.7 µM		36.7 µM		
COc1ccc(-c2nc(C(=O)n3nc(C)cc3C)co2)cc1	1.6 µM	10.6 µM	10.3 µM	39.1%	42.6%
Cc1cc(C)n(C(=O)c2coc(-c3ccc(Cl)cc3)n2)n1	4.1 µM		27.6 µM		
Cc1cc(C)n(C(=O)c2coc(-c3ccccc3O)n2)n1	54.8 µM		139 µM		
COc1ccc(C2CNC(=O)C2)cc1OC1CCCC1 (stereo not drawn) [ROLIPRAM]			18.6 µM	30.9%	40.8%
Cc1cc(C)n(C(=O)c2coc(-c3ccccc3)n2)n1	75.8 µM		199 µM		
Cc1cc(C)n(C(=O)c2coc(-c3ccc(Br)cc3)n2)n1	54.8 µM		168 µM		
Cc1cc(C)n(C(=O)c2coc(-c3cccc(O)c3)n2)n1	28.9 µM		78.4 µM		
COc1cccc(-c2nc(C(=O)n3nc(C)cc3C)co2)c1	4.5 µM		18.7 µM		
Cc1cc(C)n(C(=O)c2coc(-c3ccc(F)cc3)n2)n1	8.4 µM		29.7 µM		
Cc1cc(C)n(C(=O)c2coc(-c3ccc(O)cc3)n2)n1	15.8 µM		66.4 µM		

More lines, main results first:

IC50 [1]	IC50 [2]	SMILES	IC50 (PBMC)	inhibition in vivo at 10 mg/kg (Rattus norvegicus)	inhibition in vivo at 10 mg/kg (Mus musculus)
9.8 µM		O=C(c1coc(-c2ccc(F)cc2)n1)n1cccn1	54.8 µM		
88.7 µM		O=C(c1coc(-c2ccccc2)n1)n1cccn1	199 µM		
17.5 µM		Cc1ccc(-c2nc(C(=O)n3cccn3)co2)cc1	72.4 µM		
39.7 µM		O=C(c1coc(-c2cccc(O)c2)n1)n1cccn1	88.4 µM		
5.9 µM		COc1cccc(-c2nc(C(=O)n3cccn3)co2)c1	45.8 µM		
18.4 µM		O=C(c1coc(-c2ccc(O)cc2)n1)n1cccn1	75.5 µM		
85.6 µM		O=C(c1coc(-c2ccccc2O)n1)n1cccn1	205 µM		
45.1 µM		O=C(c1coc(-c2cccc(F)c2)n1)n1cccn1	99.6 µM		
5.3 µM		O=C(c1coc(-c2ccc(Cl)cc2)n1)n1cccn1	40.1 µM		
3.2 µM	8.4 µM	COc1ccc(-c2nc(C(=O)n3cccn3)co2)cc1	20.8 µM	22.4%	26.1%
58.7 µM		O=C(c1coc(-c2ccc(Br)cc2)n1)n1cccn1	187 µM		
